Patent US9434688B2, “Indole derivatives as selective androgen receptor modulators (SARMS)” (Janssen Pharmaceutica, NV, priority 2004, dated 2016)
Several values for one entry are separate records, joined by “and”; a condition that tells them apart may be missing. Equal entries are not always repeated.

Biological target: T1, androgen receptor (Rattus norvegicus, UniProt P15207)
T1 sequence (P15207 1-902): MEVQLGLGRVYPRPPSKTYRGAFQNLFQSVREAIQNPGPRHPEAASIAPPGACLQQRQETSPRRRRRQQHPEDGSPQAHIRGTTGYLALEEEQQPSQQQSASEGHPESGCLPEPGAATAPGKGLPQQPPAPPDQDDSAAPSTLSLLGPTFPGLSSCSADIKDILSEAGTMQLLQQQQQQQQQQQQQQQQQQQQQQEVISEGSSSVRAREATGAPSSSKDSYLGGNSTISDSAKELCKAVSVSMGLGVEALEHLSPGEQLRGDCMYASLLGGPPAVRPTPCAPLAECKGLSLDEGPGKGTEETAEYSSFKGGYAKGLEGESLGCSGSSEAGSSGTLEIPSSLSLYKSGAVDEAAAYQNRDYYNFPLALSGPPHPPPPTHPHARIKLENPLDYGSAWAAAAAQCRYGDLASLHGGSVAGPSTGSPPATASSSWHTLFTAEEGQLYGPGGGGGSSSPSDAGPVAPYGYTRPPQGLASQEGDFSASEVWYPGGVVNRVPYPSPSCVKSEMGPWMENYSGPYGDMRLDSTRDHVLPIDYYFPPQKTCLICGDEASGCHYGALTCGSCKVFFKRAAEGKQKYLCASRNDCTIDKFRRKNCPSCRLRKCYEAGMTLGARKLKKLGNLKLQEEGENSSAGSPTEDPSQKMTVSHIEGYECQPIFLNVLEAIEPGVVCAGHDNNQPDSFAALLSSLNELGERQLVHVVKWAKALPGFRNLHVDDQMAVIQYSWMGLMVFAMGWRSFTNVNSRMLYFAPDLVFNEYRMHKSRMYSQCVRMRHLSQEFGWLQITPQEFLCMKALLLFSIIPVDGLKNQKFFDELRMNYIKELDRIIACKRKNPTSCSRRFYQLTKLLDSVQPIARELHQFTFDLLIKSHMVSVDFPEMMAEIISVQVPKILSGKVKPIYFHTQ
Experiment: L929 Androgen Receptor Functional Assay, Adenovirus Transduction
Assay type: cell-based
Design: expressed in transfected cells; host or cells: L929 cells transduced with adenovirus AdEasy+rAR
Settings: concentration of 3000 nM, 3 µM
Description: L929 cells were plated in 96-well plates at 20,000 cells per well, in DMEM/F12 (GIBCO) containing 10% (v/v) charcoal-treated fetal bovine serum (Hyclone) and lacking phenol red. The plates were then incubated overnight at 37° C. in 5% (v/v) humidified CO2.
Test compound dilutions were prepared in 100% (v/v) DMSO, if necessary. Each dilution was made to 1250× the final desired assay concentration.
First, 2 mL of DMEM/F12 lacking phenol red was pipetted into the wells of a 2-mL 96-well assay block. Next, 4 μL of the 1250× test compound dilutions were pipetted into each well of the assay block. The mixtures within the well were then carefully mixed by pipette.
In a 15 mL or 50 mL sterile centrifuge tube, a 2.5 nM (2.5×) dilution of R1881 (methyl-trienolone) in DMEM/F12 lacking phenol red was prepared.
In a second 15 mL or 50 mL centrifuge tube a solution containing an equal volume of DMEM to the first and an equal volume of 100% (v/v) DMSO to the volume of R1881 used in the first tube was prepared.
In a 15 mL or 50 mL sterile centrifuge tube, a dilution in DMEM/F12 of the adenovirus AdEasy+rAR at an moi of 1:500 per well was prepared.
The medium was removed from the 96-well plates by inversion and dried, inverted, very briefly. As soon as possible after medium removal, 40 μL of the diluted unlabeled test compound was added to each well, in duplicate. To each well designated for antagonist testing was added 40 μL of the 2.5 nM R1881 dilution to the wells for antagonist testing. To each well designated for agonist testing was added 40 μL of the DMSO dilution. Then 20 μL of the diluted adenovirus were added to all wells. The plates were incubated for 48 hours at 37° C. in 5% (v/v) humidified CO2.
To each well was added 100 μL of Steady-Glo luciferase assay substrate (Promega) and the plates were placed on a rotary shaker for 1 min. The plates were then incubated at room temperature in the dark for one hour. The contents of each well were then transferred to a white microtiter plate (Packard) and read on a Luminoskan Ascent (Thermo Lab Systems).
L929 AR percent activity was determined by testing dilutions of the test compound using a concentration of 3000 nM unless otherwise noted. L929 percent inhibition was determined by testing dilutions of the test compound using a concentration of 3000 nM. […] Luciferase activity per well were measured and EC50s and IC50s determined by linear regression.

Question: Which “% Activity” value (L929 agonist testing) does the source give for `CCSCC(O)c1cc2cc([N+](=O)[O-])c(C(F)(F)F)cc2[nH]1` (racemic) [compound 158] here?
Answer: The value was 3% and 2%.

Question: What about the “% Inhibition” value (L929 antagonist testing with R1881) of the same molecule?
Answer: The value was 21% and 29%.
